Data: ChEMBL document CHEMBL5046275 (J Med Chem, 2022)
≈ marks a conversion by molar mass, not a printed value.

Experiments:
[1] = biological target: T1, Cyclin-dependent kinase 5/CDK5 activator 1 (Homo sapiens, UniProt Q00535); experiment: Inhibition of full length N-terminal GST fused human CDK5(1 to 292 residues)/ p25 (99 to 307 residues) expressed in baculovirus expression system using FL peptide as substrate preincubated for 30 mins followed by substrate addition further incubated for 60 mins by EZ reader method
CDK2/Cyclin A2 = CDK2/Cyclin A2 (Homo sapiens, UniProt P24941); experiment: Inhibition of full length N-terminal GST tagged human CDK2(1 to 298 residues)/CyclinA2 (1 to 432 residues) expressed in baculovirus expression system using FL peptide as substrate preincubated for 30 mins followed by substrate addition further incubated for 120 mins by EZ reader method
Homo sapiens [2] = species on record: Homo sapiens; experiment: Selectivity ratio of IC50 for inhibition of full length N-terminal GST tagged human CDK2(1 to 298 residues)/CyclinA2 (1 to 432 residues) to IC50 for inhibition of full length N-terminal GST fused human CDK5(1 to 292 residues)/ p25 (99 to 307 residues)
CDK6/cyclin D3 = CDK6/cyclin D3 (Homo sapiens, UniProt Q00534); experiment: (§1) Inhibition of full length N-terminal GST fused human CDK6 (1 to 326 residues)/CyclinD3 (1 to 292 residues) expressed in baculovirus expression system using FL peptide as substrate preincubated for 30 mins followed by substrate addition and further incubated for 120 mins by EZ reader method
CDK7/Cyclin H/MNAT1 = CDK7/Cyclin H/MNAT1 (Homo sapiens, UniProt P50613); experiment: as §1, with “CDK7” for “CDK6”, “346 residues)/CyclinH” for “326 residues)/CyclinD3”, “323 residues)/ MAT1 (1 to 309” for “292”, “90” for “120”
CDK9/cyclin T1 = CDK9/cyclin T1 (Homo sapiens, UniProt P50750); experiment: as §1, with “CDK9(1 to 372 residues)/ His- tagged CyclinT1” for “CDK6”, “726” for “326 residues)/CyclinD3 (1 to 292”, “90” for “120”
[3] = biological target: T1, Cyclin-dependent kinase 5/CDK5 activator 1; experiment: Inhibition of Nano-Luc fused human full length CDK5/P35 transfected in HEK293 cells incubated for 1 hr by NanoBRET assay; type: cell-based
HEK-293T = experiment: Antiproliferative activity against human HEK293T cells assessed as cell growth inhibition incubated for 48 hrs; type: functional, cell-based
[4] = Kinetic aqueous solubility of compound in PBS at pH 7.4 incubated for 2 hrs by LC-MS/MS analysis; type: physicochemical; settings: read-out: Kinetic_solubility
P-gp = experiment: Substrate activity at P-gp in dog MDCKII-MDR1 cells assessed as efflux ratio of permeability at 1 uM incubated for 120 mins; type: ADME, cell-based, Canis lupus familiaris; settings: MDCK-MDR1
[5] = Apparent permeability across apical to basolateral side in dog MDCKII-MDR1 cells at 1 uM incubated for 120 mins; type: ADME, cell-based, Canis lupus familiaris; settings: MDCK-MDR1
[6] = Plasma protein binding in Sprague-Dawley rat at 1 uM incubated for 6 hrs by equilibrium dialysis based LC-MS/MS analysis; type: ADME, cell-free; settings: read-out: PPB (converted)
[7] = Metabolic stability human hepatocytes assessed as intrinsic clearance at 1 uM measured up to 120 mins by LC-MS/MS analysis; type: ADME, cell-based, Hepatocyte; settings: read-out: CLH
[8] = Metabolic stability in CD-1 mouse hepatocytes assessed as intrinsic clearance at 1 uM measured up to 120 mins by LC-MS/MS analysis; type: ADME, cell-based, Hepatocyte; settings: read-out: CLH
[9] = Metabolic stability in Sprague-Dawley rat hepatocytes assessed as intrinsic clearance at 1 uM measured up to 120 mins by LC-MS/MS analysis; type: ADME, cell-based, Hepatocyte; settings: read-out: CLH
[10] = Clearance in Sprague-Dawley rat at 1 mg/kg, iv measured upto 24 hrs by LC-MS/MS analysis; type: ADME, organism-based; settings: in vivo
[11] = Volume of distribution at steady state in Sprague-Dawley rat at 1 mg/kg, iv measured upto 24 hrs by LC-MS/MS analysis; type: ADME, organism-based; settings: in vivo, read-out: Vdss
[12] = Half life in Sprague-Dawley rat at 1 mg/kg, iv measured upto 24 hrs by LC-MS/MS analysis; type: ADME, organism-based; settings: in vivo
[13] = AUC (0 to 24 hrs) in Sprague-Dawley rat at 1 mg/kg, iv measured upto 24 hrs by LC-MS/MS analysis; type: ADME, organism-based; set-up: route intravenous, dose 1 mg/kg, time <=24; settings: in vivo
[14] = Cmax in Sprague-Dawley rat at 3 mg/kg, po measured upto 24 hrs by LC-MS/MS analysis; type: ADME, organism-based; set-up: route oral, dose 3 mg/kg, time <=24; settings: in vivo
[15] = AUC (0 to 24 hrs) in Sprague-Dawley rat at 3 mg/kg, po measured upto 24 hrs by LC-MS/MS analysis; type: ADME, organism-based; set-up: route oral, dose 3 mg/kg, time <=24; settings: in vivo
[16] = Oral bioavailability in Sprague-Dawley rat at 3 mg/kg measured upto 24 hrs by LC-MS/MS analysis; type: ADME, organism-based; settings: in vivo
Homo sapiens [17] = species on record: Homo sapiens; experiment: Selectivity ratio of IC50 for human CDK6 to IC50 for human CDK5
Homo sapiens [18] = species on record: Homo sapiens; experiment: Selectivity ratio of IC50 for human CDK7 to IC50 for human CDK5
Homo sapiens [19] = species on record: Homo sapiens; experiment: Selectivity ratio of IC50 for human CDK9 to IC50 for human CDK5
[20] = Cmax in Sprague-Dawley rat at 10 mg/kg, po measured upto 24 hrs by LC-MS/MS analysis; type: ADME, organism-based; set-up: route oral, dose 10 mg/kg, time <=24; settings: in vivo
[21] = AUC (0 to 24 hrs) in Sprague-Dawley rat at 10 mg/kg, po measured upto 24 hrs by LC-MS/MS analysis; type: ADME, organism-based; set-up: route oral, dose 10 mg/kg, time <=24; settings: in vivo
[22] = Oral bioavailability in Sprague-Dawley rat at 10 mg/kg measured upto 24 hrs by LC-MS/MS analysis; type: ADME, organism-based; settings: in vivo

T1 sequence (Q00535 whole entry, the tested form may be a part): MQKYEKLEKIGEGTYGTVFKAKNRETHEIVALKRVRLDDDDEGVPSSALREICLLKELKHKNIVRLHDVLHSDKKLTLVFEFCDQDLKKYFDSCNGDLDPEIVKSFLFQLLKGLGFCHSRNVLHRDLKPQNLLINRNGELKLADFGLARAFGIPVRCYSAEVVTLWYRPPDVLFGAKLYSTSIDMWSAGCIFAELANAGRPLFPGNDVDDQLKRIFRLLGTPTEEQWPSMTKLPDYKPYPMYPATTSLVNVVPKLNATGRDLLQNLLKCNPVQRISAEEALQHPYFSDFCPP
T1 sequence (Q15078 whole entry, further chain, the tested form may be a part): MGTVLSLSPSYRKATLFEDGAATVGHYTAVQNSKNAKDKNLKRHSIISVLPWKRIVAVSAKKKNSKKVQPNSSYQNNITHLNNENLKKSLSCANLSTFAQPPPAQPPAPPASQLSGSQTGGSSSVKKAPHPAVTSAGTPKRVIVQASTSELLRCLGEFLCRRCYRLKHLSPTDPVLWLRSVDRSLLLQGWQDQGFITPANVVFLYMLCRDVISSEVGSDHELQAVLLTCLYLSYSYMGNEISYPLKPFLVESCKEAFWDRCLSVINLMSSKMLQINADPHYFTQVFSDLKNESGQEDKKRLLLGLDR
Sequence of CDK9/cyclin T1 (O60563 whole entry, the tested form may be a part): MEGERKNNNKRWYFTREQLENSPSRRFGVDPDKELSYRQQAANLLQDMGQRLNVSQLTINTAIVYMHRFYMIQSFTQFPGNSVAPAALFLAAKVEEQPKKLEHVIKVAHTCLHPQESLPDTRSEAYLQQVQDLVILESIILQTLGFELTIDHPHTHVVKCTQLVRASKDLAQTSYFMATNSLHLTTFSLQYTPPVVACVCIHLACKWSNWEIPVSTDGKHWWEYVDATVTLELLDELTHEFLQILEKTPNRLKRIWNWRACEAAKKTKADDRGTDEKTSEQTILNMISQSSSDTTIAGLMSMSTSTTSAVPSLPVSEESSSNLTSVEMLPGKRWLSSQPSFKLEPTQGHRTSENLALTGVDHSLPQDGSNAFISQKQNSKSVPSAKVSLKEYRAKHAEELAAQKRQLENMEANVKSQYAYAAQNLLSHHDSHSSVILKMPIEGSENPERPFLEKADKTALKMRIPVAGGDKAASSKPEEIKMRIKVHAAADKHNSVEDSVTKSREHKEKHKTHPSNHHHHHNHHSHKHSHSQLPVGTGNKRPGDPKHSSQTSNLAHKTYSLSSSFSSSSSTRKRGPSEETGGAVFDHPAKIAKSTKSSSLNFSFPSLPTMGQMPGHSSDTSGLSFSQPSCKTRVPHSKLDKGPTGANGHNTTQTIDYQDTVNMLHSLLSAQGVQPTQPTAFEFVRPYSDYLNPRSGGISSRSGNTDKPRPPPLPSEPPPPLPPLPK
Sequence of CDK9/cyclin T1 (P50750 whole entry, the tested form may be a part): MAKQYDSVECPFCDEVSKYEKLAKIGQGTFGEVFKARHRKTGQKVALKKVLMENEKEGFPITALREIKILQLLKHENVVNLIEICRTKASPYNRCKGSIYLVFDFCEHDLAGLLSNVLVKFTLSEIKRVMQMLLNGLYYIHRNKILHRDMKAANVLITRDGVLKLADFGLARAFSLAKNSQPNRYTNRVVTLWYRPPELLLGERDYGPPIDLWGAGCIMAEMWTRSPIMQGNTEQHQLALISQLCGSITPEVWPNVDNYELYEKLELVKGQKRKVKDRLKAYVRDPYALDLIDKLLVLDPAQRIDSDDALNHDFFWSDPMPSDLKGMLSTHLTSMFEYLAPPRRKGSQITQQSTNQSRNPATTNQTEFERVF
Sequence of CDK7/Cyclin H/MNAT1 (P51946 whole entry, the tested form may be a part): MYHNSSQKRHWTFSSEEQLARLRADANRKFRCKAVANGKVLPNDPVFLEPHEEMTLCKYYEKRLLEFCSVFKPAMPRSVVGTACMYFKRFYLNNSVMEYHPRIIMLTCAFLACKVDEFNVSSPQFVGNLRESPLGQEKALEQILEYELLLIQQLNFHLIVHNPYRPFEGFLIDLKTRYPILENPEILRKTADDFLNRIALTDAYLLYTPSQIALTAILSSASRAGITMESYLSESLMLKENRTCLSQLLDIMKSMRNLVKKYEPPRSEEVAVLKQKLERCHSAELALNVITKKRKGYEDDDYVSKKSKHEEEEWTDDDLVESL
Sequence of CDK7/Cyclin H/MNAT1 (P50613 whole entry, the tested form may be a part): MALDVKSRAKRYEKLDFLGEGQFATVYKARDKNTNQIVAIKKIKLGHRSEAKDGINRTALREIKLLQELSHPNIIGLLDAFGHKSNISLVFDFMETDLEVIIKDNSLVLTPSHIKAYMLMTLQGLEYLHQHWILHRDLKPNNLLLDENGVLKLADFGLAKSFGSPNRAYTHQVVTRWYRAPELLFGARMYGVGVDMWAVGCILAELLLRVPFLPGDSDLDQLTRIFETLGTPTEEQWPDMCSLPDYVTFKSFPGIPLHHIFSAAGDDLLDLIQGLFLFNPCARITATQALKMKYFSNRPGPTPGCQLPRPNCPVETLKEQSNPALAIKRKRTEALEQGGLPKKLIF
Sequence of CDK7/Cyclin H/MNAT1 (P51948 whole entry, further chain, the tested form may be a part): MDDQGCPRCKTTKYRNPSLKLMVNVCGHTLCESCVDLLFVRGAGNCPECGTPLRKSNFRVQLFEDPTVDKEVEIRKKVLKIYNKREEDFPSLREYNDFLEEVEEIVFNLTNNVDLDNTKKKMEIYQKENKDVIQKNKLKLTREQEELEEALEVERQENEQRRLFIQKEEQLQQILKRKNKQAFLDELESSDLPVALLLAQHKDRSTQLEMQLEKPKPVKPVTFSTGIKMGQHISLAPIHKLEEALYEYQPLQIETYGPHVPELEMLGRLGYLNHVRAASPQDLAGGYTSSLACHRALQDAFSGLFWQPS
Sequence of CDK6/cyclin D3 (P30281 whole entry, the tested form may be a part): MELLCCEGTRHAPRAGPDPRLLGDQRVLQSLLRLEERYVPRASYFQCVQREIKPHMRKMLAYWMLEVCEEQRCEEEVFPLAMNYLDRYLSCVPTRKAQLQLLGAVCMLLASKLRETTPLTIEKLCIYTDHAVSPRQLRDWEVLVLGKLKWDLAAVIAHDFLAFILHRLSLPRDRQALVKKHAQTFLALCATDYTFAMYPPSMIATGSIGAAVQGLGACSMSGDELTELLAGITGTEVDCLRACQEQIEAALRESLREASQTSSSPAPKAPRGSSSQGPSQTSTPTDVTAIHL
Sequence of CDK6/cyclin D3 (Q00534 whole entry, the tested form may be a part): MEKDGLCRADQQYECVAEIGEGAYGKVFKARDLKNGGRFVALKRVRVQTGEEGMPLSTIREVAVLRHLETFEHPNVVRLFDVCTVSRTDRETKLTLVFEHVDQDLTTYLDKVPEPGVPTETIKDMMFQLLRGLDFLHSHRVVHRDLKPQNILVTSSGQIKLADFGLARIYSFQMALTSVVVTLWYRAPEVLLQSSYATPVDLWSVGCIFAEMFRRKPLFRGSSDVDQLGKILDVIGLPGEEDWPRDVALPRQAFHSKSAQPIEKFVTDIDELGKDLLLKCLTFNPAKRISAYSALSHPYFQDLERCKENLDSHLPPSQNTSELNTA

Compound	IC50 [1] [nM]	IC50 (CDK2/Cyclin A2) [nM]	Ratio IC50 (Homo sapiens [2])	IC50 (CDK6/cyclin D3) [nM]	IC50 (CDK7/Cyclin H/MNAT1) [nM]	IC50 (CDK9/cyclin T1) [nM]	solubility kinetic at 2 h [4] [µM]	efflux ratio at 2 h, 1 µM (P-gp)	Papp A→B at 2 h, 1 µM [5] [×10⁻⁶ cm/s]	fraction unbound at 6 h, 1 µM [6]	CLint scaled at 1 µM [7] [mL/min/kg]	CLint scaled at 1 µM [8] [mL/min/kg]	CLint scaled at 1 µM [9] [mL/min/kg]	clearance [10] [mL/min/kg]	Vd [11] [L/kg]	half-life [12] [h]	AUC(0-t) [13] [ng·h/mL]	Cmax [14] [ng/mL]	AUC(0-t) [15] [ng·h/mL]	bioavailability [16] [%]	further results
CN1CCC([C@@](C)(O)c2ccc3cnc(Nc4cc(N5CCOCC5)ncc4F)cc3n2)CC1	3.2	301	94	125	78	154	274 (≈ 128 µg/mL)	38	7.9	0.53	< 7	69	< 13	53	9.4	2.7	305	19	143	16	IC50 [3]: 1.2 nM; IC50 (HEK-293T): > 10000 nM
CN1CCC([C@@](C)(O)c2ccc3cnc(Nc4cc(C(F)(F)F)ncc4F)cc3n2)CC1	2.3	211	92	3200	718	894	259 (≈ 116 µg/mL)	9	18	0.37	13	89	17	12	7.3	7.6	1300	83	999	25	Ratio IC50 (Homo sapiens [17]): 1390; Ratio IC50 (Homo sapiens [18]): 312; Ratio IC50 (Homo sapiens [19]): 389; Cmax [20]: 350 ng/mL; AUC(0-t) [21]: 5320 ng·h/mL; bioavailability [22]: 41%
